Source: the NIST ThermoML archive (doi:10.1021/je300632p)

Experiment: xn = mol fraction of the nth substance listed
Conditions: 101 kPa, Liquid; for viscosity: Falling or rolling sphere viscometry; for mass density: Vibrating tube method

CCCCO [butan-1-ol] + CCO
Conditions | mass density [kg/m3] | viscosity [mPa·s]
293.15 K, x2 = 0 | 809.02 | 3.066
293.15 K, x2 = 0.1 | 807.8 | 2.693
293.15 K, x2 = 0.2 | 806.38 | 2.494
293.15 K, x2 = 0.3 | 804.85 | 2.242
293.15 K, x2 = 0.4 | 803.63 | 2.048
293.15 K, x2 = 0.501 | 801.61 | 1.897
293.15 K, x2 = 0.602 | 799.54 | 1.725
293.15 K, x2 = 0.701 | 797.38 | 1.574
293.15 K, x2 = 0.801 | 795.11 | 1.445
293.15 K, x2 = 0.9 | 792.58 | 1.301
298.15 K, x2 = 0 | 805.24 | 2.534
298.15 K, x2 = 0.1 | 803.98 | 2.376
298.15 K, x2 = 0.2 | 802.53 | 2.214
298.15 K, x2 = 0.3 | 800.97 | 1.993
298.15 K, x2 = 0.4 | 799.71 | 1.826
298.15 K, x2 = 0.501 | 797.65 | 1.705
298.15 K, x2 = 0.602 | 795.54 | 1.55
298.15 K, x2 = 0.701 | 793.33 | 1.414
298.15 K, x2 = 0.801 | 790.98 | 1.302
298.15 K, x2 = 0.9 | 788.39 | 1.18
303.15 K, x2 = 0 | 801.42 | 2.234
303.15 K, x2 = 0.1 | 800.13 | 2.103
303.15 K, x2 = 0.2 | 798.65 | 1.967
303.15 K, x2 = 0.3 | 797.06 | 1.777
303.15 K, x2 = 0.4 | 795.75 | 1.633
303.15 K, x2 = 0.501 | 793.66 | 1.533
303.15 K, x2 = 0.602 | 791.5 | 1.397
303.15 K, x2 = 0.701 | 789.23 | 1.279
303.15 K, x2 = 0.801 | 786.82 | 1.184
303.15 K, x2 = 0.9 | 784.17 | 1.072
308.15 K, x2 = 0 | 797.57 | 1.978
308.15 K, x2 = 0.1 | 796.25 | 1.868
308.15 K, x2 = 0.2 | 794.74 | 1.754
308.15 K, x2 = 0.3 | 793.12 | 1.591
308.15 K, x2 = 0.4 | 791.76 | 1.465
308.15 K, x2 = 0.501 | 789.63 | 1.381
308.15 K, x2 = 0.602 | 787.42 | 1.262
308.15 K, x2 = 0.701 | 785.1 | 1.159
308.15 K, x2 = 0.801 | 782.64 | 1.076
308.15 K, x2 = 0.9 | 779.92 | 0.977
313.15 K, x2 = 0 | 793.68 | 1.756
313.15 K, x2 = 0.1 | 792.33 | 1.664
313.15 K, x2 = 0.2 | 790.79 | 1.569
313.15 K, x2 = 0.3 | 789.13 | 1.427
313.15 K, x2 = 0.4 | 787.74 | 1.318
313.15 K, x2 = 0.501 | 785.57 | 1.246
313.15 K, x2 = 0.602 | 783.31 | 1.142
313.15 K, x2 = 0.701 | 780.94 | 1.052
313.15 K, x2 = 0.801 | 778.41 | 0.98
313.15 K, x2 = 0.9 | 775.63 | 0.892
318.15 K, x2 = 0 | 789.75 | 1.564
318.15 K, x2 = 0.1 | 788.37 | 1.487
318.15 K, x2 = 0.2 | 786.8 | 1.407
318.15 K, x2 = 0.3 | 785.11 | 1.283
318.15 K, x2 = 0.4 | 783.67 | 1.189
318.15 K, x2 = 0.501 | 781.46 | 1.127
318.15 K, x2 = 0.602 | 779.15 | 1.037
318.15 K, x2 = 0.701 | 776.73 | 0.957
318.15 K, x2 = 0.801 | 774.14 | 0.895
318.15 K, x2 = 0.9 | 771.28 | 0.815
323.15 K, x2 = 0 | 785.78 | 1.397
323.15 K, x2 = 0.1 | 784.36 | 1.333
323.15 K, x2 = 0.2 | 782.76 | 1.265
323.15 K, x2 = 0.3 | 781.03 | 1.158
323.15 K, x2 = 0.4 | 779.54 | 1.074
323.15 K, x2 = 0.501 | 777.29 | 1.024
323.15 K, x2 = 0.602 | 774.95 | 0.943
323.15 K, x2 = 0.701 | 772.47 | 0.874
323.15 K, x2 = 0.801 | 769.82 | 0.817
323.15 K, x2 = 0.9 | 766.89 | 0.748
328.15 K, x2 = 0 | 781.75 | 1.252
328.15 K, x2 = 0.1 | 780.31 | 1.199
328.15 K, x2 = 0.2 | 778.67 | 1.141
328.15 K, x2 = 0.3 | 776.91 | 1.047
328.15 K, x2 = 0.4 | 775.38 | 0.974
328.15 K, x2 = 0.501 | 773.09 | 0.93
328.15 K, x2 = 0.602 | 770.69 | 0.86
328.15 K, x2 = 0.701 | 768.15 | 0.798
328.15 K, x2 = 0.801 | 765.44 | 0.749
328.15 K, x2 = 0.9 | 762.45 | 0.686

CCO [ethanol] + CCCCCO
x1 = 1
Conditions | mass density [kg/m3] | viscosity [mPa·s]
293.15 K | 790.13 | 1.151
298.15 K | 785.86 | 1.069
303.15 K | 781.56 | 0.973
308.15 K | 777.23 | 0.888
313.15 K | 772.86 | 0.813
318.15 K | 768.44 | 0.755
323.15 K | 763.97 | 0.684
328.15 K | 759.44 | 0.63

CCO [ethanol] + CCCCO
x1 = 1
Conditions | mass density [kg/m3] | viscosity [mPa·s]
293.15 K | 790.13 | 1.151
298.15 K | 785.86 | 1.069
303.15 K | 781.56 | 0.973
308.15 K | 777.23 | 0.888
313.15 K | 772.86 | 0.813
318.15 K | 768.44 | 0.755
323.15 K | 763.97 | 0.684
328.15 K | 759.44 | 0.63

CCO [ethanol] + CCCO
x1 = 1
Conditions | mass density [kg/m3] | viscosity [mPa·s]
293.15 K | 790.13 | 1.151
298.15 K | 785.86 | 1.069
303.15 K | 781.56 | 0.973
308.15 K | 777.23 | 0.888
313.15 K | 772.86 | 0.813
318.15 K | 768.44 | 0.755
323.15 K | 763.97 | 0.684
328.15 K | 759.44 | 0.63

CCCCCO [pentan-1-ol] + CCO
Conditions | mass density [kg/m3] | viscosity [mPa·s]
293.15 K, x2 = 0 | 814.16 | 3.939
293.15 K, x2 = 0.101 | 812.81 | 3.557
293.15 K, x2 = 0.2 | 811.19 | 3.218
293.15 K, x2 = 0.3 | 809.41 | 2.884
293.15 K, x2 = 0.401 | 807.59 | 2.584
293.15 K, x2 = 0.5 | 805.44 | 2.272
293.15 K, x2 = 0.6 | 803.06 | 2.025
293.15 K, x2 = 0.7 | 800.17 | 1.784
293.15 K, x2 = 0.801 | 797.32 | 1.551
293.15 K, x2 = 0.901 | 793.6 | 1.349
298.15 K, x2 = 0 | 810.52 | 3.412
298.15 K, x2 = 0.101 | 809.14 | 3.098
298.15 K, x2 = 0.2 | 807.5 | 2.818
298.15 K, x2 = 0.3 | 805.67 | 2.541
298.15 K, x2 = 0.401 | 803.79 | 2.288
298.15 K, x2 = 0.5 | 801.6 | 2.021
298.15 K, x2 = 0.6 | 799.16 | 1.81
298.15 K, x2 = 0.7 | 796.21 | 1.603
298.15 K, x2 = 0.801 | 793.25 | 1.399
298.15 K, x2 = 0.901 | 789.45 | 1.222
303.15 K, x2 = 0 | 806.84 | 2.971
303.15 K, x2 = 0.101 | 805.44 | 2.713
303.15 K, x2 = 0.2 | 803.76 | 2.48
303.15 K, x2 = 0.3 | 801.9 | 2.249
303.15 K, x2 = 0.401 | 799.97 | 2.034
303.15 K, x2 = 0.5 | 797.73 | 1.805
303.15 K, x2 = 0.6 | 795.24 | 1.624
303.15 K, x2 = 0.7 | 792.21 | 1.444
303.15 K, x2 = 0.801 | 789.17 | 1.265
303.15 K, x2 = 0.901 | 785.28 | 1.109
308.15 K, x2 = 0 | 803.14 | 2.599
308.15 K, x2 = 0.101 | 801.71 | 2.385
308.15 K, x2 = 0.2 | 800 | 2.192
308.15 K, x2 = 0.3 | 798.1 | 1.997
308.15 K, x2 = 0.401 | 796.12 | 1.814
308.15 K, x2 = 0.5 | 793.83 | 1.617
308.15 K, x2 = 0.6 | 791.27 | 1.461
308.15 K, x2 = 0.7 | 788.18 | 1.304
308.15 K, x2 = 0.801 | 785.06 | 1.147
308.15 K, x2 = 0.901 | 781.06 | 1.01
313.15 K, x2 = 0 | 799.42 | 2.283
313.15 K, x2 = 0.101 | 797.95 | 2.105
313.15 K, x2 = 0.2 | 796.2 | 1.943
313.15 K, x2 = 0.3 | 794.26 | 1.779
313.15 K, x2 = 0.401 | 792.24 | 1.623
313.15 K, x2 = 0.5 | 789.89 | 1.452
313.15 K, x2 = 0.6 | 787.27 | 1.317
313.15 K, x2 = 0.7 | 784.11 | 1.181
313.15 K, x2 = 0.801 | 780.91 | 1.042
313.15 K, x2 = 0.901 | 776.81 | 0.921
318.15 K, x2 = 0 | 795.64 | 2.014
318.15 K, x2 = 0.101 | 794.14 | 1.865
318.15 K, x2 = 0.2 | 792.36 | 1.728
318.15 K, x2 = 0.3 | 790.38 | 1.59
318.15 K, x2 = 0.401 | 788.31 | 1.455
318.15 K, x2 = 0.5 | 785.91 | 1.308
318.15 K, x2 = 0.6 | 783.23 | 1.192
318.15 K, x2 = 0.7 | 780 | 1.072
318.15 K, x2 = 0.801 | 776.71 | 0.949
318.15 K, x2 = 0.901 | 772.51 | 0.841
323.15 K, x2 = 0 | 791.84 | 1.784
323.15 K, x2 = 0.101 | 790.29 | 1.658
323.15 K, x2 = 0.2 | 788.48 | 1.543
323.15 K, x2 = 0.3 | 786.46 | 1.426
323.15 K, x2 = 0.401 | 784.34 | 1.31
323.15 K, x2 = 0.5 | 781.88 | 1.181
323.15 K, x2 = 0.6 | 779.14 | 1.08
323.15 K, x2 = 0.7 | 775.83 | 0.975
323.15 K, x2 = 0.801 | 772.46 | 0.866
323.15 K, x2 = 0.901 | 768.16 | 0.771
328.15 K, x2 = 0 | 787.98 | 1.586
328.15 K, x2 = 0.101 | 786.4 | 1.48
328.15 K, x2 = 0.2 | 784.55 | 1.382
328.15 K, x2 = 0.3 | 782.49 | 1.283
328.15 K, x2 = 0.401 | 780.32 | 1.182
328.15 K, x2 = 0.5 | 777.8 | 1.07
328.15 K, x2 = 0.6 | 775 | 0.982
328.15 K, x2 = 0.7 | 771.63 | 0.889
328.15 K, x2 = 0.801 | 768.16 | 0.792
328.15 K, x2 = 0.901 | 763.76 | 0.707
